What was measured:
Type in all cases: functional, cell-based
HT-29 = assay: Cytotoxicity against human HT-29 cells
P388 = assay: Cytotoxicity against mouse P388 cells
A549 = assay: Cytotoxicity against human A549 cells

Measured: IC50

CC(=O)OC[C@]1(C)CCC[C@]2(C)[C@H]3C[C@@H](O)[C@]4(C)C5=C(CC[C@H]4[C@]3(C)CC[C@@H]12)COC5=O
≥ 1 µg/mL: HT-29 | P388 | A549

CC(=O)O[C@H]1CC[C@]2(C)[C@H]3C[C@@H](O)[C@]4(C)C5=C(CC[C@H]4[C@]3(C)CC[C@H]2C1(C)C)COC5=O
≥ 1 µg/mL: HT-29 | P388 | A549

CC(=O)O[C@@H]1c2occc2[C@@H](O)C[C@H]2[C@]3(C)CC[C@H]4C(C)(C)CCC[C@]4(C)[C@H]3C[C@@]21C [SALMAHYRTISOL A]
≥ 1 µg/mL: HT-29 | P388 | A549

CC1(C)CCC[C@]2(C)[C@H]3C[C@@H](O)[C@]4(C)c5cocc5C(=O)C[C@H]4[C@]3(C)CC[C@@H]12 [SALMAHYRTISOL B]
≥ 1 µg/mL: HT-29 | P388 | A549

— ChEMBL document CHEMBL1159300, “Salmahyrtisol A, a novel cytotoxic sesterterpene from the Red Sea sponge Hyrtios erecta” (J Nat Prod, 2002)
